What was measured:
[1] = test system: EGFR mutant (L858R, ex19del and T790M) cancer models; details: in vitro and in vivo; cited from earlier work
[2] = molecular target: WT EGFR (Homo sapiens, UniProt P00533); details: at clinically relevant efficacious concentrations; cited from earlier work
[3] = test system: PD-L1 (CD274) on tumor cells; test: Effects of targeted agents on PD-L1 modulation (real time PCR and flow cytometry), summary; type: cell-based, human
Source text: This example evaluates the effects of selected therapeutic agents (e.g., INC280, MEK162, LGX818 and LDK378) on PD-L1 (CD274) modulation. Selected therapeutic agents were examined by real time PCR and flow cytometry on PD-L1 levels.

[4] = test system: PD-L1 (CD274) surface expression in EBC-1 cells; test: Flow cytometry of PD-L1 surface expression in EBC-1 cells in vitro; type: cell-based, human; details: EBC-1 cells (NSCLC with cMET amplification), FIG. 1
Description: PD-L1 (CD274) expression was analyzed in cancer cell lines treated with INC280. Cells were obtained from ATCC and cultured in vitro following ATCC directions. The cell lines used were previously characterized by the Cancer Cell Line Encyclopedia Project (http://www.broadinstitute.org/ccle/home). Cells plated in six-well culture plates were treated with the INC280 at different concentrations (10 nM, 100 nM, and 1000 nM) for 24, 48 and 72 hours. Equal amount of vehicle (DMSO) was used as a control. Cells were washed with PBS and then harvested using a cell scraper. For each reaction, 0.5-1×10^6 cells were stained with 20 μL of anti-human monoclonal PD-L1-PE antibody, clone M1H1 (BD) for 30-60 minutes at 4° C. Cells were washed twice and data was acquired using a Canto II with FACSDiva software (BD Bioscience). Data analysis was performed using FlowJo software (Tree Star). Mean fluorescence intensity (MFI) was determined by gating on single cells. Unstained cells were used as a gating control.

[5] = test system: PD-L1 (CD274) mRNA in Hs.746.T tumor xenograft; test: TaqMan RT PCR of PD-L1 mRNA in Hs.746.T tumor xenograft; type: in vivo, human; details: Hs.746.T tumor (gastric cancer, cMET amplification & mutation) xenograft, FIG. 2
Description: (§1) TaqMan RT PCR assays were developed to detect changes of expression levels of PD-L1 (CD274) in cell lines and xenograft tumors. mRNA was isolated from frozen cell pellets or tumor fragments using the Qiagen RNeasy Mini kit. Isolated RNA was frozen at −80° C. RNA quality was checked and RNA was quantified using a 2100 Agilent Bioanalyzer following the protocol for the Agilent RNA 6000 Nano Kit. cDNA was prepared using a High Capacity RNA- to cDNA Kit (Applied Biosystems). Real-time PCR reactions were carried out in 20 μl total volume, including 10 μl of Universal PCR master mix (Applied Biosystems), 1 μl of human PD-L1 (CD274) probe/primer set (Applied Biosystems), and 8 μl of cDNA. Each sample was run in triplicate. The amount of cDNA produced from 25-50 ng of RNA in the reverse transcription reaction was used in each PCR reaction. Due to difference in mRNA levels between PD-L1 and GAPDH, the two real-time PCR reactions were done in separate tubes using same amount of cDNA. The real-time PCR reaction was run on the C1000 Thermal Cycle (BioRad) with the cycle program as follows: a 10 minute incubation at 95° C. followed by 40 cycles of 95° C. for 15 seconds and 60° C. for 1 minute. After the reaction was complete, the PD-L1 average Ct was normalized relative to each Ct value from the GAPDH reference reaction. Each normalized logarithmic value was then converted into a linear value.

[6] = test system: PD-L1 (CD274) mRNA in H3122 cells; test: TaqMan RT PCR of PD-L1 mRNA in H3122 cells in vitro; type: cell-based, human; details: H3122 (NSCLC with ALK translocation) in vitro, FIG. 3
Description: (§2) TaqMan RT PCR assays were developed to detect changes of expression levels of PD-L1 (CD274) in cell lines and xenograft tumors. mRNA was isolated from frozen cell pellets or tumor fragments using the Qiagen RNeasy Mini kit. Isolated RNA was frozen at −80° C. RNA quality was checked and RNA was quantified using a 2100 Agilent Bioanalyzer following the protocol for the Agilent RNA 6000 Nano Kit. cDNA was prepared using a High Capacity RNA- to cDNA Kit (Applied Biosystems).
as §1, with “Real-time” for “TaqMan RT PCR assays were developed to detect changes of expression levels of PD-L1 (CD274) in cell lines and xenograft tumors. mRNA was isolated from frozen cell pellets or tumor fragments using the Qiagen RNeasy Mini kit. Isolated RNA was frozen at −80° C. RNA quality was checked and RNA was quantified using a 2100 Agilent Bioanalyzer following the protocol for the Agilent RNA 6000 Nano Kit. cDNA was prepared using a High Capacity RNA- to cDNA Kit (Applied Biosystems). Real-time”

[7] = test system: PD-L1 (CD274) mRNA in LOXIMV1 tumors; test: TaqMan RT PCR of PD-L1 mRNA in LOXIMV1 tumor xenograft model; type: in vivo, human; details: tumor xenograft model bearing LOXIMV1 (BRAF mutant melanoma), FIG. 4
Description: as §2
as §1, with “Real-time” for “TaqMan RT PCR assays were developed to detect changes of expression levels of PD-L1 (CD274) in cell lines and xenograft tumors. mRNA was isolated from frozen cell pellets or tumor fragments using the Qiagen RNeasy Mini kit. Isolated RNA was frozen at −80° C. RNA quality was checked and RNA was quantified using a 2100 Agilent Bioanalyzer following the protocol for the Agilent RNA 6000 Nano Kit. cDNA was prepared using a High Capacity RNA- to cDNA Kit (Applied Biosystems). Real-time”

[8] = test system: PD-L1 (CD274) mRNA in HEYA8 tumors; test: TaqMan RT PCR of PD-L1 mRNA in HEYA8 tumor xenograft model; type: in vivo, human; details: tumor xenograft model bearing HEYA8 (KRAS mutant ovarian cancer), FIG. 5
Description: as §2
as §1, with “Real-time” for “TaqMan RT PCR assays were developed to detect changes of expression levels of PD-L1 (CD274) in cell lines and xenograft tumors. mRNA was isolated from frozen cell pellets or tumor fragments using the Qiagen RNeasy Mini kit. Isolated RNA was frozen at −80° C. RNA quality was checked and RNA was quantified using a 2100 Agilent Bioanalyzer following the protocol for the Agilent RNA 6000 Nano Kit. cDNA was prepared using a High Capacity RNA- to cDNA Kit (Applied Biosystems). Real-time”

WT EGFR, sequence (P00533 25-1210): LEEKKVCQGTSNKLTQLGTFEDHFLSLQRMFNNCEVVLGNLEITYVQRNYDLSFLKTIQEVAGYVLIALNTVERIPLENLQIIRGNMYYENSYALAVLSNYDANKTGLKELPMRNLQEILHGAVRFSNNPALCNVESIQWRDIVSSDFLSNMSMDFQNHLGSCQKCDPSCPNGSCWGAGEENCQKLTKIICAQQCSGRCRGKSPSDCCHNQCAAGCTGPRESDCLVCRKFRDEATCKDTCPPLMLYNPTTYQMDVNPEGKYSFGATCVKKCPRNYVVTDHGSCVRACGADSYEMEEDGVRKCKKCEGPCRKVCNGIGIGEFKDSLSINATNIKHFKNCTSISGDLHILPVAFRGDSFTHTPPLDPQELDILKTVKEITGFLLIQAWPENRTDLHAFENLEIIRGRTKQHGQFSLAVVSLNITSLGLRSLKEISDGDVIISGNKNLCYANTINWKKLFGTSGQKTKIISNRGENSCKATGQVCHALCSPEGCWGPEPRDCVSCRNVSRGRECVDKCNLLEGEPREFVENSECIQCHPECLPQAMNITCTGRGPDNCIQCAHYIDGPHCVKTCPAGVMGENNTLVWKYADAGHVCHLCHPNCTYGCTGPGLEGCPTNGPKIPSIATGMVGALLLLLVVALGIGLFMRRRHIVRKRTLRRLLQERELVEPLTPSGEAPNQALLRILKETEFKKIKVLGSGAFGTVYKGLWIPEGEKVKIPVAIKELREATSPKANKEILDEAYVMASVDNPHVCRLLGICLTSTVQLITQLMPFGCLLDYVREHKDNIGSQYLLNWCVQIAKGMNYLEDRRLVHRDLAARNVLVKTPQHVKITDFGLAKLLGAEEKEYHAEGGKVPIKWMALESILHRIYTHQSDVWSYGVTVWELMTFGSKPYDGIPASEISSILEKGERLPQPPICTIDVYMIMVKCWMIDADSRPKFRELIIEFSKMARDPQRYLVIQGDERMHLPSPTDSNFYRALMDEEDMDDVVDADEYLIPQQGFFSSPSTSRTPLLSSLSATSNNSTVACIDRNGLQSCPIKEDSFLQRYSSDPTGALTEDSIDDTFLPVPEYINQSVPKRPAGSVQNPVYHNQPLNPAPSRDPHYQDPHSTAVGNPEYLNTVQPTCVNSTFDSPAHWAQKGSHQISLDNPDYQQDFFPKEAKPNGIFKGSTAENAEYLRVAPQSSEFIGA

## Cc1cc(C(=O)Nc2nc3cccc(Cl)c3n2[C@@H]2CCCCN(C(=O)/C=C/CN(C)C)C2)ccn1 [EGF816, (R,E)-N-(7-chloro-1-(1-(4-(dimethylamino)but-2-enoyl)azepan-3-yl)-1H-benzo[d]imidazol-2-yl)-2-methylisonicotinamide]
[1]
  efficacy in EGFR mutant cancer models: significant efficacy
[2]
  WT EGFR inhibition: no indication of WT EGFR inhibition

## CNC(=O)c1ccc(-c2cnc3ncc(Cc4ccc5ncccc5c4)n3n2)cc1F [INC280, 2-fluoro-N-methyl-4-[7-(quinolin-6-ylmethyl)imidazo[1,2-b][1,2,4]triazin-2-yl]benzamide]
[3]
  inhibition of PD-L1 on tumor cells: Significant inhibition
[4]
  surface expression of PD-L1: significant downregulation
[5]
  PD-L1 expression (mRNA): Inhibition

## Cc1cc(Nc2ncc(Cl)c(Nc3ccccc3S(=O)(=O)C(C)C)n2)c(OC(C)C)cc1C1CCNCC1 [LDK378, 5-chloro-N2-(2-isopropoxy-5-methyl-4-(piperidin-4-yl)-phenyl)-N4-[2-(propane-2-sulfonyl)-phenyl]-pyrimidine-2,4-diamine, reference compound]
[3]
  inhibition of PD-L1 on tumor cells: Significant inhibition
[6]
  PD-L1 mRNA: Inhibition

## COC(=O)N[C@@H](C)CNc1nccc(-c2cn(C(C)C)nc2-c2cc(Cl)cc(NS(C)(=O)=O)c2F)n1 [LGX818, methyl (S)-(1-((4-(3-(5-chloro-2-fluoro-3-(methylsulfonamido)phenyl)-1-isopropyl-1H-pyrazol-4-yl)pyrimidin-2-yl)amino)propan-2-yl)carbamate]
[3]
  inhibition of PD-L1 on tumor cells: Significant inhibition
[7]
  PD-L1 mRNA: Downregulation

## Cn1cnc2c(F)c(Nc3ccc(Br)cc3F)c(C(=O)NOCCO)cc21 [MEK162, 5-((4-bromo-2-fluorophenyl)amino)-4-fluoro-N-(2-hydroxyethoxy)-1-methyl-1H-benzo[d]imidazole-6-carboxamide]
[3]
  inhibition of PD-L1 on tumor cells: Significant inhibition
[8]
  PD-L1 mRNA: Downregulation

Reference: patent publication US11344620B2, “Combination therapies” (Novartis AG, priority 2014, dated 2022)
